How the values were obtained:
JEG-3 cells [1] = assay: [3H]-thymidine incorporation by JEG-3 cells (JEG-3 protocol); type: cell-based; settings: FIG. 5
Description: In JEG-3 cells (choriocarcinoma cell line) leptin is able to stimulate proliferation up to 3 fold (Biol. Reprod. (2007) 76: 203-10). […] The radioactivity incorporated by the cells is an index of their proliferative activity and is measured in counts per minute (CPM) with a liquid scintillation beta counter.
This finding can be applied to test whether a compound is able to either reproduce the effect of leptin on cell proliferation (leptin receptor agonist mimetic) (i.e., a given compound will cause an increase in incorporated [^3H]-Thymidine by the cells) or to inhibit the effect of leptin (antagonistic effect) by preventing the leptin-mediated increase in [^3H]-thymidine incorporation.
This approach has the advantage of using a non-recombinant system and has reasonable reproducibility and robustness.

JEG-3 cells [2] = settings: Biol. Reprod. (2007) 76: 203-10; cited from earlier work

- EC50 (JEG-3 cells [1]; JEG-3 cells (choriocarcinoma cell line), read-out: EC50 of concentration-dependent increase in [3H]-thymidine incorporation): 2.1 nM
Substance: Leptin: hormone synthesized in fat cells that is believed to act in the hypothalamus to reduce food intake and body weight
- concentration giving maximal effect on [3H]-thymidine incorporation (JEG-3 cells [1]; JEG-3 cells): 100 nM
- stimulation of proliferation (JEG-3 cells [2]): up to 3 fold
